# Test results reported in patent US12467068B2, “Process for the production and recovery of bio-surfactant from Bacillus sp. MCC0156” (COUNCIL OF SCIENTIFIC & INDUSTRIAL RESEARCH, priority 2019, dated 2025).
# Tests used:
# [1] = Surfactant properties of purified compounds (oil dispersion, surface tension, emulsification); type: physicochemical; settings: purified compound
# Protocol: The purified compounds from the crude biosurfactants were analyzed for oil dispersion (OD), surface tension and emulsification activities using the standard protocols as mentioned in methodology. […] The low CMC value 0.3 mg/ml for crude biosurfactant results from mixture of compounds in compare to purified single compound.
# [2] = test system: Artemia salina; assay: Toxicity on microcrustacean Artemia salina (mortality after 24 h); type: in vivo; settings: 24 h at 28 °C, artificial sea water
# Protocol: The toxicity of bio-surfactants on microcrustacean Artemia salina was performed in artificial sea water with 30 g/L (w/v) NaCl. Different concentrations like, 10 μg/ml, 100 μg/ml and 1000 μg/ml of crude bio-surfactant and purified compound-1 was supplemented in artificial sea salt solution (pH 8.0) and inoculated with 20 numbers of micro-crustacean A. salina in 10 ml per tube of solution and incubated for 24 h at 28° C. under artificial light condition.
# The toxicity of bio-surfactants was determined by calculating the mortality rate against the control (in triplicate) after 24 h incubation. The effect of biosurfactants on the microorganisms was studied in minimal salt medium (MSM) to determine the utilization or degradation pattern of bio-surfactant in presence of Pseudomonas aeruginosa NCIM 2037, Arthrobacter sp NCIM 5452 and Rhodococcus sp NCIM 5488. The minimal salt medium was supplemented with 100 ppm of crude biosurfactant and inoculated with all three strains and incubated at 30° C., 150 rpm for 72 h. Effect of biosurfactants on growth of test strains were determined through measuring the optical density at 620 nm after incubation of 72 h.
# [3] = parameters: Surface tension reduced to: unit not given here; settings: cited from earlier work
compound,measurement,setting,value
"CC(C)CCCCCCCCCCCCC(O)CC(=O)O (stereo not drawn) [compound-2, 3-Hydroxy-16-methylheptadecanoic acid]","Surface properties (oil dispersion, surface tension, emulsification activity)",[1],not active
"C=CCCCCCCCCCCCCCCCCCCCCCCCCCCCCCCCCCCCCCCCCCCCCCCCCCCCCCCCCCCCCCCCCCCCCCCCCCCCCCCCCCCCCCCCCCCCCC [compound-1, 1-Pentanonacontene]",E24 for n-hexane,[1],40%
same,Oil dispersion efficiency,[1],93.75%
same,Surface tension of distilled water decreased to,[1]; distilled water 71.41±0.069 mN/m,28.53±0.02 mN/m
same,Mortality,[2]; 10 μg/ml,59%
same,Mortality,[2]; 100 μg/ml,61%
same,Mortality,[2]; 1000 ug/ml,68%
Aneurinifactin,Surface tension reduced to,[3]; reported biosurfactant,26
same,CMC value,[3]; reported biosurfactants,0.026 mg/mL
